The text below walks through data of ChEMBL document CHEMBL3046411, “Synthesis and antioxidant studies of novel N-substituted benzyl/phenyl-2-(3,4-dimethyl-5,5-dioxidopyrazolo[4,3-c][1,2]benzothiazin-2(4H)-yl)acetamides” (Med Chem Res, 2013).

Assay [1] is described as follows: Antioxidant activity assessed as superoxide anion radical scavenging activity at 1 mM. Format: functional.
Assay [2] concerns Radical scavenging activity. Put plainly: Antioxidant activity assessed as DPPH radical scavenging activity at 0.5 mM after 30 min. Format: functional.

Consider `Cc1ccc(CNC(=O)Cn2nc3c(c2C)N(C)S(=O)(=O)c2ccccc2-3)cc1`, for which the Activity was found to be 57.8% in assay [1] and 17.9% in assay [2]. Regarding `Cc1c2c(nn1CC(=O)Nc1ccccc1)-c1ccccc1S(=O)(=O)N2C`, the Activity was 28.6% in assay [1] and 18.3% in assay [2]. Consider `Cc1c2c(nn1CC(=O)NCc1ccc(F)cc1)-c1ccccc1S(=O)(=O)N2C`, for which the values for the Activity in assay [1] and in assay [2] were 42.3% and 15.8%, respectively. Regarding `COc1ccccc1NC(=O)Cn1nc2c(c1C)N(C)S(=O)(=O)c1ccccc1-2`, the Activity in assay [1] was 53.8%; in assay [2] it was 26.9%. As to `Cc1c2c(nn1CC(=O)Nc1cccc(Br)c1)-c1ccccc1S(=O)(=O)N2C`, the Activity in assay [1] worked out at 47.1%; in assay [2], 26.1%. On the same counts, the results for `COc1ccc(CNC(=O)Cn2nc3c(c2C)N(C)S(=O)(=O)c2ccccc2-3)cc1` are 33.1% and 23.7%. For the molecule `COc1cccc(NC(=O)Cn2nc3c(c2C)N(C)S(=O)(=O)c2ccccc2-3)c1`, the results for the Activity in assay [1] and in assay [2] were 47.4% and 20.2%, respectively. In the case of `COc1ccc(CNC(=O)Cn2nc3c(c2C)N(C)S(=O)(=O)c2ccccc2-3)c(OC)c1`, the figures for the Activity in assay [1] and in assay [2] were 58.3% and 27.3%, respectively.

Consider `COc1ccc(O)c(C(C)(C)C)c1.COc1ccc(O)cc1C(C)(C)C`, for which the Activity in assay [2] was 92.6%. `Cc1c2c(nn1CC(=O)Nc1ccc(F)cc1)-c1ccccc1S(=O)(=O)N2C`: the Activity in assay [1] was determined as 44.1%; in assay [2], 22.1%.

For `COc1ccccc1CNC(=O)Cn1nc2c(c1C)N(C)S(=O)(=O)c1ccccc1-2`, the values for the Activity in assay [1] and in assay [2] were 38.8% and 25.6%, respectively. Consider `Cc1c2c(nn1CC(=O)Nc1ccccc1Cl)-c1ccccc1S(=O)(=O)N2C`, for which the Activity in assay [1] was found to be 61%; in assay [2] it was 21.8%. The corresponding values for `Cc1c2c(nn1CC(=O)NCc1ccc(Cl)cc1)-c1ccccc1S(=O)(=O)N2C` are 47.2% and 16.7%. Turning to `Cc1c2c(nn1CC(=O)NCc1cccc(Br)c1)-c1ccccc1S(=O)(=O)N2C`, the Activity in assay [1] turned out to be 32.5%; in assay [2], 14.1%. On the same counts, the results for `COc1cccc(CNC(=O)Cn2nc3c(c2C)N(C)S(=O)(=O)c2ccccc2-3)c1` are 25.9% and 16.2%. Take `COc1ccc(NC(=O)Cn2nc3c(c2C)N(C)S(=O)(=O)c2ccccc2-3)c(OC)c1`: the Activity stood at 78.3% in assay [1] and 39.8% in assay [2]. For the molecule `Cc1c2c(nn1CC(=O)Nc1ccccc1Br)-c1ccccc1S(=O)(=O)N2C`, the Activity turned out to be 79.1% in assay [1] and 27.6% in assay [2]. Consider `Cc1c2c(nn1CC(=O)NCc1ccccc1F)-c1ccccc1S(=O)(=O)N2C`, for which the results for the Activity in assay [1] and in assay [2] were 48.5% and 20.2%, respectively.

As to `Cc1c2c(nn1CC(=O)Nc1ccccc1F)-c1ccccc1S(=O)(=O)N2C`, the figures for the Activity in assay [1] and in assay [2] were 47.7% and 23.1%, respectively. On the same counts, the results for `Cc1c2c(nn1CC(=O)NCc1ccccc1Cl)-c1ccccc1S(=O)(=O)N2C` are 52.5% and 17.1%. Consider `Cc1c2c(nn1CC(=O)Nc1ccc(Cl)cc1)-c1ccccc1S(=O)(=O)N2C`, for which the Activity turned out to be 55.6% in assay [1] and 25.4% in assay [2]. Take `Cc1ccccc1CNC(=O)Cn1nc2c(c1C)N(C)S(=O)(=O)c1ccccc1-2`: the Activity in assay [1] turned out to be 81.5%; in assay [2], 15.2%. Turning to `CCCOC(=O)c1cc(O)c(O)c(O)c1`, in assay [1], the Activity worked out at 90.8%. Consider `Cc1c2c(nn1CC(=O)NCc1ccccc1Br)-c1ccccc1S(=O)(=O)N2C`, for which the values for the Activity in assay [1] and in assay [2] were 64% and 21.1%, respectively.
